Data from patent US5061720A, “Substituted-4-thiazolidinone derivatives” (A. H. Robins Company, Inc., priority 1989, dated 1991).

Experiments:
[1] = biological target: T1, cyclooxygenase (Ovis aries, UniProt P05979); assay: Cyclooxygenase Assay (polarigraphic oxygen consumption, lipid-depleted sheep seminal vesicle microsomes); type: biochemical; details: 30° C., 2 min incubation, ammonium arachidonate substrate
T1 construct: Lipid-depleted Sheep Seminal Vesicle Microsome Suspension; from tissue; host or cells: sheep seminal vesicle microsomes (lipid-depleted powder, detergent solubilized)
T1 sequence (P05979 25-600): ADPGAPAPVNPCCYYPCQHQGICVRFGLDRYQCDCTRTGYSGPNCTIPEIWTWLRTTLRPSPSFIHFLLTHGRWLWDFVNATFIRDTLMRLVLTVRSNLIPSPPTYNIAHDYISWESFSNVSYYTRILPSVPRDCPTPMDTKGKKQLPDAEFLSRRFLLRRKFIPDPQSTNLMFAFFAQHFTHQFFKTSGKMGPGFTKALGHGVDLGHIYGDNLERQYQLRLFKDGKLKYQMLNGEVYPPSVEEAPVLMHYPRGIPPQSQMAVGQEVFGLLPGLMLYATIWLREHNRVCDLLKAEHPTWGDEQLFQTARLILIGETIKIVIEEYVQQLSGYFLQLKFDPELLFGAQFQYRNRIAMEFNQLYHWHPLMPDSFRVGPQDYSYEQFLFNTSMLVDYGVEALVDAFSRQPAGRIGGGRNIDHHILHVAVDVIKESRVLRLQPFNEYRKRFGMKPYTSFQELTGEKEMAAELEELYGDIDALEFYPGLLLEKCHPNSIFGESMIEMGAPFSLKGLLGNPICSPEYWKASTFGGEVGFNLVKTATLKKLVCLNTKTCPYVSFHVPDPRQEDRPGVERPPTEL
Experimental: Cyclooxygenase activity was determined polarigraphically with detergent solubilized, lipid-depleted sheep seminal vesical microsomes. Addition of test articles that inhibit cyclooxygenase, including reference standards, cause a decrease in the rate of oxygen consumption in the reactions. Cyclooxygenase activity is determined using the following procedures:
I. Preparation of Test Materials
1. Lipid-Depleted Sheep Seminal Vesicle Microsomal Powder. This preparation follows the procedure of G. Graff et al. J. Biol. Chem. 253, 7662 (1978).
2. Ammonium Arachidonate Solution. A 250 μL aliquot of 20.0 mM arachidonic acid in absolute ethanol and a 50-μL aliquot of concentrated ammonium hydroxide is placed into a test tube. The solvent and excess ammonium hydroxide is evaporated under a stream of nitrogen at room temperature. The ammonium arachidonate residue is dissolved in 500 μL of 100 mM 2-amino-2-hydroxymethyl-1,3-propanediol hydrochloride (Tris HCl) buffer (pH 8.0) by using a vortex mixer. The final concentration of ammonium arachidonate (working solution) is 10.0 mM.
3. Enzyme Buffer 100 mM Tris HCl (pH 8.0) containing 2.0 mM phenol, 5.0 mM ethylenediaminetetraacetic acid (EDTA), 5.0 mM diethyldithiocarbamic acid and 1.0% Tween 20.
4. Reaction Buffer 100 mM Tris HCl (pH 8.0) containing 2.0 μM hematin and 1.0 mM phenol (prepared daily).
5. Detergent Solubilized Lipid-depleted Sheep Seminal Vesicle Microsome Suspension. Ten mg (solid) of lipid-depleted microsomal powder from sheep seminal vesicles is suspended in 1.0 mL of enzyme buffer and kept at 4° C. until used.
6. Solutions of Test (Formula I compound) or Reference Articles. Test and reference articles are dissolved in the reaction buffer prepared in 4) or a solvent that will not interfere with cyclooxygenase activity, e.g., dimethylsulfoxide, ethanol or acetone.
II. Cyclooxygenase Inhibition Assay
Three mL of the reaction buffer and 20 μL of the microsomal enzyme suspension are placed in a Yellow Springs Instrument (YSI) oxygen chamber where the temperature is maintained at 30° C. by means of a temperature controlled circulating water bath. Aliquots of the solutions containing ≤[…] of Formula I compound (test article) or reference article [see 6) above] are added to the YSI chamber and incubated for 2 minutes. The reaction is initiated by addition of 30 μL of the 10 mM ammonium arachidonate solution and cyclooxygenase activity determined polarigraphically using an oxygen electrode by measuring the rate of oxygen consumption [Cook et al., Anal. Biochem 96 341-51 (1979) and Cook and Lands, Can. J. Biochem. 53, 1220-1231 (1975)].
Test, reference, and control articles were evaluated in triplicate. Cyclooxygenase activity was determined from the slope (mv/unit time) of the recorder tracing with 1 mV being proportional to a 2.34 μM change in oxygen concentration.
The IC50 (concentration of test or reference article that inhibits the reaction by 50%) was calculated from cumulative plots relating the extent of inhibition of cyclooxygenase activity in control group assays to increasing concentrations of test article. Where no inhibition exists, the IC50 is expressed as greater than the highest concentration of the drug tested.

[2] = biological target: T2, 5-lipoxygenase (Homo sapiens, UniProt P09917); assay: 5-Lipoxygenase Assay (production of 5-HETE from arachidonic acid in polymorphonuclear leukocytes stimulated by A23187); type: cell-based; details: inhibition of production of 5-HETE, human PMN cells, calcium ionophore A23187, 37° C.
T2 construct: Polymorphonuclear leukocytes were obtained from whole human blood; endogenous in cells; host or cells: human polymorphonuclear leukocytes from whole blood, stimulated with A23187
T2 sequence (P09917 1-674): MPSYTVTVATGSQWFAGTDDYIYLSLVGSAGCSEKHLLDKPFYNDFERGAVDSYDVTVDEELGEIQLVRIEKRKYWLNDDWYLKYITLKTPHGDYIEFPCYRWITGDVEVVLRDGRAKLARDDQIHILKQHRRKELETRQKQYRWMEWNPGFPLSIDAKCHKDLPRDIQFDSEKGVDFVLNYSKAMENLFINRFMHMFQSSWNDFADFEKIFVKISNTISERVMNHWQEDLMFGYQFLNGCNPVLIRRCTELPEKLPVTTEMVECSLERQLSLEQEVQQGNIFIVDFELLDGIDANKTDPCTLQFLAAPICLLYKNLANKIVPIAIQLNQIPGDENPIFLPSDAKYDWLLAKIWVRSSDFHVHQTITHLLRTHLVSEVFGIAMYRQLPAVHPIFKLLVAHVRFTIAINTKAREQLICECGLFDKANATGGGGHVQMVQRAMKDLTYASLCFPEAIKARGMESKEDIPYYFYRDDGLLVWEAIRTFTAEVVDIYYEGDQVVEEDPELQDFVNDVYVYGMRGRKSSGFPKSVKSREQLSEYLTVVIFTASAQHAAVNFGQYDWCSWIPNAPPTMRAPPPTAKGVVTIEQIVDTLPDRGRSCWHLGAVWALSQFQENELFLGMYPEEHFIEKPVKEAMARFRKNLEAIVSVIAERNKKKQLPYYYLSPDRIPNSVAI
Experimental: The production of 5-HETE from arachidonic acid in human polymorphonuclear leukocytes stimulated by the calcium ionophore A23187 (Calbiochemicals) was measured by reverse phase high pressure liquid chromatography. This procedure is a modification of the procedure of Sun and McGuire, PROSTAGLANDINS, 26, 211-221 (1983). Addition of substances to the test system that inhibit 5-lipoxygenases cause a decrease in the production of 5-HETE and is thus determined in comparison to reference and control articles also added to the reaction system.
Polymorphonuclear leukocytes were obtained from whole human blood by the procedure of Skoog and Beck, BLOOD, 11, 436-454 (1956). […] The tube is incubated for an additional 10 min at 37° C. and the incubations terminated by addition of 1.5 mL of acetone and cooling to 0° C. 13-Hydroxyoctadecatrienoic acid (13-HODT) (5 μL of 0.2 mM methanolic solution) is added for an internal reference standard. The tube is stored at -20° C. under argon for 4-18 hr. Centrifugation at 1000×g for 10 min causes protein precipitate to form a pellet. The acetone layer is evaporated under a stream of nitrogen and the resultant lipid residue containing the arachidonic acid metabolites and 13-HODT is dissolved in 0.5 mL of methanol and stored at -20° C. until analyzed by high-pressure liquid chromatography (HPLC).
For analysis, a 150-μL aliquot of the methanol solution is evaporated under a stream of argon. The residue is reconstituted with 100 μL of a 1:1 methanol-water mixture and sonified for 15-20 seconds and the mixture analyzed by HPLC (C18 reversed phase Econophere column, methanol:water:acetic acid 79:25:0.2 v/v/v used for elution). Test, reference, and control articles are evaluated in duplicate. The inhibition is reported as that concentration which will inhibit by 50% the production of 5-HETE.

[3] = test system: guinea pig skin; assay: UV-Erythema in Guinea Pigs; type: in vivo; design: key: +: active; -: inactive; details: topical, 50 μL of cream with 1.0 mg test article per 1 g, immediately after UV exposure; active = composite score significantly lower than control, Dunnett's t-test p≤0.05
Experimental: I. Preparation of Formulation (cream)
All drugs tested were prepared by thoroughly incorporating 1.0 mg of the test article into 1 g of a pH 7.0 cream vehicle of the following composition.
methyl glucose sesquistearate 1.6%
methyl gluceth-20 sesquistearate 2.4%
emulsifying wax, N.F. 5.0%
mineral oil (heavy), U.S.P. 1.0%
white petrolatum, U.S.P. 5.0%
stearic acid, U.S.P. 2.5%
sodium benzoate, N.F. 0.1%
magnesium aluminum silicate 1.5%
deionized water, pH 7.0 64.8%
The preparations were packed into 1-cc plastic syringes.
II. Pharmacological Assay
The backs of female, English short hair guinea pigs (250-500 g) were shaved and depilated with Nair®. Control and treated groups each consisted of 5 animals, and selection of the animals and the control and treatment groups was achieved by random procedures. A rubber sheet with three one-half inch holes spaced one-half inch apart was draped over backs of the guinea pigs. The guinea pigs were then exposed to ultraviolet (UV) light (Hanovia Model 10, ~650-800 μW/cm^2) for 15 seconds by holding the animals against the light source. Fifty μL of the test drug or reference drug (indomethacin or bromfenac) preparation were immediately rubbed onto the skin, either on the area exposed to UV light or to an area adjacent to the UV light exposed skin. The degree of erythema for each exposed area was scored at various times following exposure according to the following scale:
1=slight redness with faint outline
2=moderate to marked redness with distinct outline
The score was totaled for each guinea pig (maximum score is 6). The Dunnett's t-test was used to determine significant (p≤0.05) differences from the control (placebo treated) group.

| Compound | IC50 [1] [nM] | IC50 [2] [nM] | U.V. erythema (+ = active, - = inactive) [3] |
| --- | --- | --- | --- |
| CCCCC1SC(c2cccc(Oc3ccccc3)c2)N(CCc2ccccn2)C1=O (stereo not shown) [Example 18, 5-Butyl-2-(3-phenoxyphenyl)-3-[2-(2-pyridinyl)ethyl]-4-thiazolidinone] | 120 | 7800 |  |
| CCCC[C@@H]1S[C@H](c2cccc(Oc3ccccc3)c2)N(c2ccc(O)cc2)C1=O (relative stereo) [Example 3, 5-Butyl-3-(4-hydroxyphenyl)-2-(3-phenoxyphenyl)-4-thiazolidinone] | 8000 | 5000 |  |
| CCCCC1SC(c2cccc(Oc3ccccc3)c2)N(CCCCCCC(=O)OCC)C1=O (stereo not shown) [Example 55, 5-Butyl-4-oxo-2-(3-phenoxyphenyl)-3-thiazolidineheptanoic acid ethyl ester] | 1000 | ~10000 |  |
| CCCCC1SC(c2cccc(Oc3ccccc3)c2)N(CCCOc2ccc(C(=O)O)cc2)C1=O (stereo not shown) [Example 30, 4-[3-[5-Butyl-4-oxo-2-(3-phenoxyphenyl)-3-thiazolidinyl]propoxy]benzoic acid] | 1600 | 3500 |  |
| CCCC[C@@H]1S[C@@H](c2cccc(Oc3ccccc3)c2)N(CCCCc2ccc(C(=O)OCC)cc2)C1=O (relative stereo) [Example 5, 4-[4-[5-Butyl-4-oxo-2-(3-phenoxyphenyl)-3-thiazolidinyl]butyl]benzoic acid ethyl ester] | 70 |  |  |
| CCCC[C@@H]1S[C@@H](c2cccc(C(=O)c3ccccc3)c2)N(c2ccc(O)cc2)C1=O (relative stereo) [Example 22, 2-(3-Benzoylphenyl)-5-butyl-3-(4-hydroxyphenyl)-4-thiazolidinone] | 2200 | 6400 |  |
| CCCCC1SC(c2cccc(Oc3ccccc3)c2)N(CCc2ccc(O)cc2)C1=O (stereo not shown) [Example 59, 5-Butyl-3-[2-(4-hydroxyphenyl)ethyl]-2-(3-phenoxyphenyl)-4-thiazolidinone] |  |  | + |
| CCCC[C@@H]1S[C@H](c2cccc(Oc3ccccc3)c2)N(CCCCc2ccc(C(=O)OCC)cc2)C1=O (relative stereo) [Example 6, 4-[4-[5-Butyl-4-oxo-2-(3-phenoxyphenyl)-3-thiazolidinyl]butyl]benzoic acid ethyl ester] | 50 |  |  |
